Read-outs that look alike come from different tables or passages of the source. One block for each compound: values may come before it.
What was measured:
[1] = Drug metabolism experiment on prodrug in SD rats: concentration in liver compared with blood; type: in vivo; settings: SD rats; for transformation of prodrug into active metabolite 1 in the liver: oral 3 mg/kg, in words
Protocol: (§1) Test 3: Drug metabolism experiment on prodrug in SD rats
(§2) In the experiment, […] of 12 male SD rats having similar body weights were selected and orally administered compound 9, compound 10, and the control drug VK2809 (the prodrug of MB07444, structured as shown below) at a dose of 3 mg/kg at a single time, respectively, and blood and liver samples were collected at different time points.
(§3) Solutions of compound 9/compound 10 and VK2809 with a final concentration of 0.6 mg/mL were respectively prepared, and the ratio between the solvents used for the preparation was PEG400: pure water =50:50 (v/v).
(§4) No randomization was performed. The weights of the animals were measured before administration, and healthy animals with similar body weights were selected for inclusion in the experiment. The oral dose was 3 mg/kg.
(§5) At least 0.2 mL of blood was collected from the tail vein or jugular vein, and heparin sodium was used as the anticoagulant.
(§6) After being collected, a blood sample was placed in a marked ice-water bath centrifuge tube, plasma was quickly separated by centrifugation under centrifugation conditions: 3500 rpm, 10 minutes, and 4° C., and the plasma was stored under −40° C. for testing.
After the liver sample was collected, its surface was washed with normal saline, dried with medical gauze, placed in a labeled small ziplock bag, and stored under −40° C. for testing.
(§7) Q TRAP6500 mass spectrometer with ESI source was used to perform negative ion MRM scanning. An LC-MS/MS analysis method was used to detect the contents of compound 9, compound 10 and its active metabolite 1, VK2809 and its active metabolite MB07444 in the plasma and liver. The metabolic kinetics data analysis software WinNonlin 7.0 was used to calculate the concentration data of plasma, and the non-compartmental model (NCA) method was used to calculate the pharmacokinetic parameters.
The parameters of concentration in the livers of the SD rats and a comparison with the concentration in plasma are shown in Table 3 below: […]

[2] = Drug metabolism experiment on prodrug in SD rats: plasma pharmacokinetic parameters; type: in vivo; settings: for concentration of prodrug in plasma / transformation of prodrug into the active parent drug after oral administration: oral 3 mg/kg, in words
Protocol: as §1, §2, §3, §4, §5
15 min, 30 min, 1 h, 2 h, 4 h, 6 h, 8 h, 24 h after administration.
as §6, §7

[3] = molecular target: T1, THR-α (Homo sapiens, UniProt P10827); test: Test of the binding ability of the compound to TRα (TRα LBD/RXRα, biotin-SRC2-2 co-activating peptide, 665/615 nm fluorescence ratio); type: biochemical; settings: for Emax: activity relative to positive control
T1 construct: TR-a LBD, GST purchased from Thermo Fisher; purchased Thermo Fisher PV4762
Protocol: (§8) 4.2 The activity percentage was calculated as follows: […]
(§9) RatioCompound: Average of the relative ratios of the compound wells of the embodiments
(§10) RatioPositive: Average of the relative ratios of all positive control wells.
(§11) RatioBlank: Average of the relative ratios of all negative control wells.
(§12) EC50 was calculated by fitting the relationship between activity (%) and compound logarithmic concentration with Graphpad 5.0 by a nonlinear regression method.
(§13) Y=Bottom+ (top-bottom)/(1+10^((LogEC50−X)*slope))
(§14) X: Compound logarithmic concentration Y: Percentage activity

[4] = molecular target: T2, THR-β (Homo sapiens, UniProt P10828); test: Test of the binding ability of the compound to TRβ (TRβ LBD/RXR, biotin-SRC2-2 co-activating peptide, 665/615 nm fluorescence ratio); type: biochemical; settings: for Emax: activity relative to positive control; for α/β selectivity (multiple): calculated after being standardized with T3
T2 construct: TRB LBD, GST purchased from Thermo Fisher; purchased Thermo Fisher PV4762
Protocol: 1. Main experimental materials and instruments:
Biotin-SRC2-2 co-activating peptide purchased from Sangon Biotech (Shanghai) Co., Ltd.
TRB LBD, GST purchased from Thermo Fisher (product No. PV4762)
Europium-conjugated anti-glutathione antibody purchased from Cisbio (product No. 61GSTKLB)
Streptavidin-D2 purchased from Cisbio (product No. 610SADAB)
as §8, §9, §10, §11, §12, §13, §14

[5] = male, Sprague-Dawley (SD), rat, plasma, po, 3 mg/kg, oral 3 mg/kg Compound 10
[6] = plasma, oral 3 mg/kg Compound 9
[7] = male, Sprague-Dawley (SD), rat, plasma, po, 3 mg/kg, oral 3 mg/kg VK2809

T1 sequence (P10827 163-410 isoform P10827-2 limits assumed, other chains not shown): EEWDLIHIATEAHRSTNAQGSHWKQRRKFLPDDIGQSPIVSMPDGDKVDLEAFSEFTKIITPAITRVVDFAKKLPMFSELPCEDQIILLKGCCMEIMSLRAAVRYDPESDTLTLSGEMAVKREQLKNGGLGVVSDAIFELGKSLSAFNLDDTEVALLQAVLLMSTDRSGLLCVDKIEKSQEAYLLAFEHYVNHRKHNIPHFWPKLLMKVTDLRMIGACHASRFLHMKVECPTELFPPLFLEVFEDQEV
T1 sequence (P19793 whole entry partner, other chains not shown, the tested form may be a part): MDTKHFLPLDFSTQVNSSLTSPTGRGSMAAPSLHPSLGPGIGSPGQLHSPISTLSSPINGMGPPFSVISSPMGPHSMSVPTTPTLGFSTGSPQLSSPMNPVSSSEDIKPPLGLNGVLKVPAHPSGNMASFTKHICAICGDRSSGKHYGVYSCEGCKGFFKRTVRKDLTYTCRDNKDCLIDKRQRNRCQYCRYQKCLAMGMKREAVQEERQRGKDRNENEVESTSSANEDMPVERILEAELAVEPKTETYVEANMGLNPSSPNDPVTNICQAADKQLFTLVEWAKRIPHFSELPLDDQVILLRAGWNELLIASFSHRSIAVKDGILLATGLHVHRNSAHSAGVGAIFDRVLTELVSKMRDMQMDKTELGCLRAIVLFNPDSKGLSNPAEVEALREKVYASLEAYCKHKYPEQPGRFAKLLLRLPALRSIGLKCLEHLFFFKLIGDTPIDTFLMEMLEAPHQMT
T2 sequence (P10828 217-461 limits assumed, other chains not shown): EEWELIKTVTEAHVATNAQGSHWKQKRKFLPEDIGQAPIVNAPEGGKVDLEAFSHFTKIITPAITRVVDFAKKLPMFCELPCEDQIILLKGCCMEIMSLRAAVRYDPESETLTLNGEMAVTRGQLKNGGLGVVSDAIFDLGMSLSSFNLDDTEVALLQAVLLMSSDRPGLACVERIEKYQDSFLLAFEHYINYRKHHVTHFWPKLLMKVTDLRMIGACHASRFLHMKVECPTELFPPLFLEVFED
T2 sequence (P28702 whole entry partner, other chains not shown, the tested form may be a part): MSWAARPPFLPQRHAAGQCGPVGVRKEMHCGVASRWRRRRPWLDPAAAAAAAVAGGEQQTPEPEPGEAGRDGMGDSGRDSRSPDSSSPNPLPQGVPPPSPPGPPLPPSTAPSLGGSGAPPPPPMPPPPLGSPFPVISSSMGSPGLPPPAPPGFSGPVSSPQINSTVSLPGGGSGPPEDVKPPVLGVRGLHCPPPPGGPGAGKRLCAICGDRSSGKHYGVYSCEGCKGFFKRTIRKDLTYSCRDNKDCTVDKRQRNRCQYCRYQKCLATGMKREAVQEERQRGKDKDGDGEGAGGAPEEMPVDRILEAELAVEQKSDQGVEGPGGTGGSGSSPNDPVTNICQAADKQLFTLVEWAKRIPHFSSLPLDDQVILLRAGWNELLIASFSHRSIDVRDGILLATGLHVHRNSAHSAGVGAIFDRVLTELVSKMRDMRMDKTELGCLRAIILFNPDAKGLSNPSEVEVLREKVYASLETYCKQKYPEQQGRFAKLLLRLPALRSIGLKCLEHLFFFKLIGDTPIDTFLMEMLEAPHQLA

- Ct Blood ([1]; 24 h, oral 3 mg/kg Compound 10): BLQ
- Ct Liver ([1]; 24 h, oral 3 mg/kg Compound 10): BLQ
- transformation of prodrug into active metabolite 1 in the liver [1]: much better than that of VK2809
- Kp at 1 h ([1]; male, Sprague-Dawley (SD), rat, liver / plasma (heading prints blood), po, 3 mg/kg, 1 h, oral 3 mg/kg Compound 10, read-out: Liver-to-blood ratio): 16.2
- Kp at 4 h ([1]; male, Sprague-Dawley (SD), rat, liver / plasma (heading prints blood), po, 3 mg/kg, 4 h, oral 3 mg/kg Compound 10, read-out: Liver-to-blood ratio): 7.8
- Kp at 8 h ([1]; male, Sprague-Dawley (SD), rat, liver / plasma (heading prints blood), po, 3 mg/kg, 8 h, oral 3 mg/kg Compound 10, read-out: Liver-to-blood ratio): 4.7
- concentration at 1 h ([1]; male, Sprague-Dawley (SD), rat, liver, po, 3 mg/kg, 1 h, oral 3 mg/kg Compound 10, read-out: Ct Liver): 141 ng/g
- concentration at 4 h ([1]; male, Sprague-Dawley (SD), rat, liver, po, 3 mg/kg, 4 h, oral 3 mg/kg Compound 10, read-out: Ct Liver): 273 ng/g
- concentration at 8 h ([1]; male, Sprague-Dawley (SD), rat, liver, po, 3 mg/kg, 8 h, oral 3 mg/kg Compound 10, read-out: Ct Liver): 46.5 ng/g
- concentration at 1 h ([1]; male, Sprague-Dawley (SD), rat, plasma (heading prints blood), po, 3 mg/kg, 1 h, oral 3 mg/kg Compound 10, read-out: Ct Blood): 8.8 ng/g
- concentration at 4 h ([1]; male, Sprague-Dawley (SD), rat, plasma (heading prints blood), po, 3 mg/kg, 4 h, oral 3 mg/kg Compound 10, read-out: Ct Blood): 7.9 ng/g
- concentration at 8 h ([1]; male, Sprague-Dawley (SD), rat, plasma (heading prints blood), po, 3 mg/kg, 8 h, oral 3 mg/kg Compound 10, read-out: Ct Blood): 10.3 ng/g
- AUC(0-inf) [2, 5]: 89.3 ng·h/mL
- AUC(0-t) [2, 5]: 69.2 ng·h/mL
- Tmax [2, 5]: 4.67 h
- half-life [2, 5]: 1.73 h
- Cmax ([2]; male, Sprague-Dawley (SD), rat, plasma, po, 3 mg/kg, plasma, oral 3 mg/kg Compound 10, read-out: Cmax): 19.9 ng/mL
- concentration of prodrug in plasma [2]: not high
- Kel ([2]; plasma, oral 3 mg/kg Compound 10): 0.428 h⁻¹
Structure (SMILES): Cc1cc(OC[P@@]2(=O)OCC[C@@H](c3cccc(Cl)c3)O2)cc(C)c1Cc1ccc(O)c2c1CCC2(C)C [Compound 10]
- transformation of prodrug into the active parent drug after oral administration [2]: quickly transformed into the active parent drug compound 1

- EC50 [3]: 0.27 µM
- Emax [3]: 105%
- EC50 [4]: 0.104 µM
- Emax [4]: 100%
- α/β selectivity (multiple) [4]: 4.8 multiple
Structure (SMILES): Cc1cc(OCP(=O)(O)O)cc(C)c1Cc1ccc(O)c2c1CCCC2(C)C [Compound 3]

- EC50 [3]: 0.23 µM
- Emax [3]: 106%
- EC50 [4]: 0.041 µM
- Emax [4]: 111%
- α/β selectivity (multiple) [4]: 11.4 multiple
Structure (SMILES): Cc1cc(OCP(=O)(O)O)cc(C)c1Cc1ccc(O)c2c1CCCC2 [B, reference compound]

The next lines start with the compound.

Structure (SMILES): Cc1cc(OCP(=O)(O)O)cc(C)c1Cc1ccc(O)c2ccccc12 [A, ((4-((4-hydroxynaphthyl-1-yl)methyl)-3,5-dimethylphenoxy)methyl) phosphoric acid, reference compound]
- EC50 [3]: 0.28 µM
- Emax [3]: 106%
- EC50 [4]: 0.109 µM
- Emax [4]: 100%
- α/β selectivity (multiple) [4]: 4.7 multiple

Structure (SMILES): Cc1cc(OC[P@@](=O)(N[C@@H](C)C(=O)OC(C)C)Oc2ccccc2)cc(C)c1Cc1ccc(O)c2c1CCC2(C)C [Compound 9]
- Ct Blood ([1]; 1 h, oral 3 mg/kg Compound 9): BLQ
- Ct Liver ([1]; 1 h, oral 3 mg/kg Compound 9): BLQ
- Ct Blood ([1]; 4 h, oral 3 mg/kg Compound 9): BLQ
- Ct Liver ([1]; 4 h, oral 3 mg/kg Compound 9): BLQ
- Ct Blood ([1]; 8 h, oral 3 mg/kg Compound 9): BLQ
- Ct Liver ([1]; 8 h, oral 3 mg/kg Compound 9): BLQ
- Ct Blood ([1]; 24 h, oral 3 mg/kg Compound 9): BLQ
- Ct Liver ([1]; 24 h, oral 3 mg/kg Compound 9): BLQ
- transformation of prodrug into active metabolite 1 in the liver [1]: rapidly metabolized in the liver to produce active metabolite compound 1
- concentration of prodrug in plasma [2]: not high
- transformation of prodrug into the active parent drug after oral administration [2]: quickly transformed into the active parent drug compound 1
- AUC0−t [2, 6]: BLQ
- AUC0−∞ [2, 6]: BLQ
- Cmax [2, 6]: BLQ

Structure (SMILES): Cc1cc(OCP(=O)(O)O)cc(C)c1Cc1ccc(O)c(C(C)C)c1 [MB07444, reference compound]
- EC50 [3]: 0.051 µM
- Emax [3]: 113%
- concentration at 1 h ([1]; male, Sprague-Dawley, rat, liver, po, 3 mg/kg, 1 h, oral 3 mg/kg VK-2809, read-out: Ct Liver): 214 ng/g
- concentration at 4 h ([1]; male, Sprague-Dawley, rat, liver, po, 3 mg/kg, 4 h, oral 3 mg/kg VK-2809, read-out: Ct Liver): 952 ng/g
- concentration at 8 h ([1]; male, Sprague-Dawley, rat, liver, po, 3 mg/kg, 8 h, oral 3 mg/kg VK-2809, read-out: Ct Liver): 542 ng/g
- concentration at 24 h ([1]; male, Sprague-Dawley, rat, liver, po, 3 mg/kg, 24 h, oral 3 mg/kg VK-2809, read-out: Ct Liver): 37 ng/g
- Kp at 1 h ([1]; male, Sprague-Dawley, rat, liver/plasma, po, 3 mg/kg, 1 h, oral 3 mg/kg VK-2809, read-out: Liver-to-blood ratio): 15.9
- Kp at 4 h ([1]; male, Sprague-Dawley, rat, liver/plasma, po, 3 mg/kg, 4 h, oral 3 mg/kg VK-2809, read-out: Liver-to-blood ratio): 14
- Kp at 8 h ([1]; male, Sprague-Dawley, rat, liver/plasma, po, 3 mg/kg, 8 h, oral 3 mg/kg VK-2809, read-out: Liver-to-blood ratio): 13.6
- Kp at 24 h ([1]; male, Sprague-Dawley, rat, liver/plasma, po, 3 mg/kg, 24 h, oral 3 mg/kg VK-2809, read-out: Liver-to-blood ratio): 9.9
- concentration at 1 h ([1]; male, Sprague-Dawley, rat, plasma, po, 3 mg/kg, 1 h, oral 3 mg/kg VK-2809, read-out: Ct Blood): 5.9 ng/g
- concentration at 4 h ([1]; male, Sprague-Dawley, rat, plasma, po, 3 mg/kg, 4 h, oral 3 mg/kg VK-2809, read-out: Ct Blood): 16.9 ng/g
- concentration at 8 h ([1]; male, Sprague-Dawley, rat, plasma, po, 3 mg/kg, 8 h, oral 3 mg/kg VK-2809, read-out: Ct Blood): 29.6 ng/g
- concentration at 24 h ([1]; male, Sprague-Dawley, rat, plasma, po, 3 mg/kg, 24 h, oral 3 mg/kg VK-2809, read-out: Ct Blood): 3.6 ng/g
- AUC(0-inf) [2, 7]: 448 ng·h/mL
- AUC(0-t) [2, 7]: 420 ng·h/mL
- Tmax [2, 7]: 7.33 h
- half-life [2, 7]: 5.29 h
- Cmax ([2]; male, Sprague-Dawley (SD), rat, plasma, po, 3 mg/kg, plasma, oral 3 mg/kg VK2809, read-out: Cmax): 38.8 ng/mL
- Kel ([2]; plasma, oral 3 mg/kg VK2809): 0.131 h⁻¹
- EC50 [4]: 0.033 µM
- Emax [4]: 113%
- α/β selectivity (multiple) [4]: 2.9 multiple

— patent publication US12378268B2, “Heterocyclic THR-β receptor agonist compound and preparation method and use therefor” (Hepagene Therapeutics (HK) Limited, priority 2019, dated 2025)
